{
  "source": "patent US20070092474A1",
  "about": "“Carnitine salt, preliposome which contains it and dermocosmetic formula for topical use based upon said carnitine salt” (priority 2003, published 2007)",
  "key": {"[1]": {"tested_on": "skin blemishes deriving from cellulite and from localised adiposity", "experiment": "Overall evaluation of the efficiency of the cosmetic product adjuvating the reduction of skin blemishes", "format": "in vivo, female volunteers", "details": "versus just carnitine (II) and just hydroxy citric acid (III) in the same tests", "protocol": "(§1) A dermatological test was carried out on 25 female volunteers between 18 and 65 years of age, with the backing of the Department of Physiological and Pharmacological Sciences of the university of Pavia. The investigation aimed to check the modification of three anatomical-physiological parameters, qualifying the unaesthetic-functional aspect connected to the manifestation of so-called cellulite and subcutaneous hypertriglyceridaemia: measurement of the skin folds, measurement of the circumference of the thighs, thermographic skin measurement.\n(§2) The test stretched out over 60 days with the continual daily application of the aforementioned preparation of cosmetic gel. The measurements were carried out after 15, 30 and 60 days. The detail of the test protocol and of the results obtained is shown hereafter.\nEvaluation of the Efficiency of a Cosmetic Product Adjuvating the Reduction of the Skin Blemishes Deriving from Cellulite and from Localised Adiposity.\nThe present experimentation allows it to be evaluated whether the cosmetic product being studied carries out an action adjuvating the reduction of the skin blemishes deriving from cellulite and from localised adiposity. […]"}, "[2]": {"tested_on": "skin blemishes caused by cellulite and localised adiposity", "experiment": "Liquid crystal contact thermography of the thighs, clinical score of cellulite stage", "format": "in vivo, female volunteers", "parameters": "key: 9: IV SERIOUS; 8: IV AVERAGE; 7: IV INITIAL; 6: III SERIOUS; 5: III AVERAGE; 4: III INITIAL; 3: II SERIOUS; 2: II AVERAGE; 1: II INITIAL", "details": "clinical score per volunteer, MEDIA = mean", "protocol": "as §1, §2\n25 female volunteers aged between 18 and 65, with the presence of skin blemishes caused by cellulite and localised adiposity, were selected according to the following criteria: good general state of health, absence of skin pathologies, not being under medication, commitment not to vary the normal daily routine, no medical history of atopy.\nThe samples were tested by uniformly applying them on “Glute SX Glute DJ (Femoris Posto SX Femoris Posto DX Femoris Ant. SX Femoris Ant. DX” every day at least once per day for the entire duration of the test.\nAt the time of inclusion in the study and during the subsequent checks after 15 days (T15), after 30 days (T30) and after 60 days (T60) of treatment the following instrumental measurements were taken: • plicometry (through a plicometer) • thigh circumference (through a measuring tape broken into millimetres) • contact thermography (through liquid crystal thermographic plates).\nFor its part, thermography allows the extension and the gravity of the microcirculatory skin damage and, consequently, the subcutaneous damage, to be evaluated based upon the regional skin temperature variations. Such temperature variations reveal the presence of subschemic areas (cold areas, due to regional hypothermia) or of phenomena of capillary-venous stasis (hot areas). The diagnostic properties of thermography are relative to the recognition of maldistribution of microcirculation. In particular, “liquid crystal contact thermography” was used, in which the property of cholesteric liquid crystals (of which the plates are made up) of modifying their spatial arrangement according to the temperature is exploited; each spatial modification corresponds to a different refraction of the light rays which thus assume different colours according to the incidence of the light on the faces of the cholesteric microcrystals: in practice, when the thermographic plates are placed upon the skin of the zone to be investigated, these assume different colourations according to the skin temperature. Conventionally, the thermographic images observed during the course of the different stages of evolution of the Edematous fibrosclerotic panniculopathy from stasis of the lower limbs can be classified in four, or more, thermographic stages; the latter approximately correspond to the gravity of the four istologic stages in which the moments of evolution of the panniculosis are divided."}},
  "note": "Values joined by “and” are separate entries in the source; they are usually repeats but may differ in a detail not shown here. Identical values can stand only once.",
  "data": [
    {"substance": "carnitine hydroxycitrate [carnitine hydroxy citrate]", "values": [
      {"measurement": "Comparison of the salt with the two reactants by themselves", "setting": "[1]", "value": "provides the best results"},
      {"measurement": "LEFT THIGH THERMOGRAPHY 1/3 T0", "setting": "[2]", "value": "5 (9×) and 4 (3×) and 7 (4×) and 2 and 6 (7×) and 3"},
      {"measurement": "LEFT THIGH THERMOGRAPHY 1/3 T0", "setting": "[2]; mean", "value": 5.3},
      {"measurement": "LEFT THIGH THERMOGRAPHY 1/3 T15", "setting": "[2]", "value": "5 (9×) and 4 (5×) and 3 (3×) and 7 (2×) and 2 and 6 (5×)"},
      {"measurement": "LEFT THIGH THERMOGRAPHY 1/3 T15", "setting": "[2]; mean", "value": 4.8},
      {"measurement": "LEFT THIGH THERMOGRAPHY 1/3 T30", "setting": "[2]", "value": "2 (7×) and 4 (10×) and 3 (2×) and 6 (3×) and 5 (3×)"},
      {"measurement": "LEFT THIGH THERMOGRAPHY 1/3 T30", "setting": "[2]; mean", "value": 3.7},
      {"measurement": "LEFT THIGH THERMOGRAPHY 1/3 T60", "setting": "[2]", "value": "2 (11×) and 3 (7×) and 4 (4×) and 5 (2×) and 6"},
      {"measurement": "LEFT THIGH THERMOGRAPHY 1/3 T60", "setting": "[2]; mean", "value": 3.0},
      {"measurement": "LEFT THIGH THERMOGRAPHY 2/3 T0", "setting": "[2]", "value": "4 (5×) and 5 (10×) and 3 (3×) and 7 and 2 and 6 (5×)"},
      {"measurement": "LEFT THIGH THERMOGRAPHY 2/3 T0", "setting": "[2]; mean", "value": 4.7},
      {"measurement": "LEFT THIGH THERMOGRAPHY 2/3 T15", "setting": "[2]", "value": "3 (7×) and 4 (11×) and 5 (3×) and 6 (3×) and 2"},
      {"measurement": "LEFT THIGH THERMOGRAPHY 2/3 T15", "setting": "[2]; mean", "value": 4.0},
      {"measurement": "LEFT THIGH THERMOGRAPHY 2/3 T30", "setting": "[2]", "value": "2 (6×) and 3 (12×) and 4 (6×) and 5"},
      {"measurement": "LEFT THIGH THERMOGRAPHY 2/3 T30", "setting": "[2]; mean", "value": 3.1},
      {"measurement": "LEFT THIGH THERMOGRAPHY 2/3 T60", "setting": "[2]", "value": "2 (9×) and 3 (11×) and 4 (4×) and 1"},
      {"measurement": "LEFT THIGH THERMOGRAPHY 2/3 T60", "setting": "[2]; mean", "value": 2.7},
      {"measurement": "LEFT THIGH THERMOGRAPHY 3/3 T0", "setting": "[2]", "value": "3 (3×) and 5 (3×) and 4 (16×) and 2 (2×) and 7"},
      {"measurement": "LEFT THIGH THERMOGRAPHY 3/3 T0", "setting": "[2]; mean", "value": 4.0},
      {"measurement": "LEFT THIGH THERMOGRAPHY 3/3 T15", "setting": "[2]", "value": "3 (7×) and 4 (11×) and 5 (3×) and 2 (4×)"},
      {"measurement": "LEFT THIGH THERMOGRAPHY 3/3 T15", "setting": "[2]; mean", "value": 3.5},
      {"measurement": "LEFT THIGH THERMOGRAPHY 3/3 T30", "setting": "[2]", "value": "2 (7×) and 3 (11×) and 4 (5×) and 1 (2×)"},
      {"measurement": "LEFT THIGH THERMOGRAPHY 3/3 T30", "setting": "[2]; mean", "value": 2.8},
      {"measurement": "LEFT THIGH THERMOGRAPHY 3/3 T60", "setting": "[2]", "value": "1 (3×) and 3 (11×) and 2 (10×) and 4"},
      {"measurement": "LEFT THIGH THERMOGRAPHY 3/3 T60", "setting": "[2]; mean", "value": 2.4},
      {"measurement": "RIGHT THIGH THERMOGRAPHY 1/3 T0", "setting": "[2]", "value": "5 (10×) and 4 (3×) and 7 (3×) and 3 (2×) and 6 (6×) and 8"},
      {"measurement": "RIGHT THIGH THERMOGRAPHY 1/3 T0", "setting": "[2]; mean", "value": 5.3},
      {"measurement": "RIGHT THIGH THERMOGRAPHY 1/3 T15", "setting": "[2]", "value": "5 (9×) and 4 (6×) and 7 (3×) and 3 (2×) and 6 (5×)"},
      {"measurement": "RIGHT THIGH THERMOGRAPHY 1/3 T15", "setting": "[2]; mean", "value": 5.0},
      {"measurement": "RIGHT THIGH THERMOGRAPHY 1/3 T30", "setting": "[2]", "value": "2 (7×) and 4 (9×) and 3 (2×) and 5 (4×) and 6 (2×) and 7"},
      {"measurement": "RIGHT THIGH THERMOGRAPHY 1/3 T30", "setting": "[2]; mean", "value": 3.8},
      {"measurement": "RIGHT THIGH THERMOGRAPHY 1/3 T60", "setting": "[2]", "value": "2 (11×) and 3 (6×) and 4 (5×) and 5 (2×) and 6"},
      {"measurement": "RIGHT THIGH THERMOGRAPHY 1/3 T60", "setting": "[2]; mean", "value": 3.0},
      {"measurement": "RIGHT THIGH THERMOGRAPHY 2/3 T0", "setting": "[2]", "value": "4 (6×) and 5 (11×) and 7 and 3 (3×) and 6 (4×)"},
      {"measurement": "RIGHT THIGH THERMOGRAPHY 2/3 T0", "setting": "[2]; mean", "value": 4.8},
      {"measurement": "RIGHT THIGH THERMOGRAPHY 2/3 T15", "setting": "[2]", "value": "3 (5×) and 4 (12×) and 5 (4×) and 6 (3×) and 2"},
      {"measurement": "RIGHT THIGH THERMOGRAPHY 2/3 T15", "setting": "[2]; mean", "value": 4.1},
      {"measurement": "RIGHT THIGH THERMOGRAPHY 2/3 T30", "setting": "[2]", "value": "2 (4×) and 3 (13×) and 4 (7×) and 5"},
      {"measurement": "RIGHT THIGH THERMOGRAPHY 2/3 T30", "setting": "[2]; mean", "value": 3.2},
      {"measurement": "RIGHT THIGH THERMOGRAPHY 2/3 T60", "setting": "[2]", "value": "2 (8×) and 3 (12×) and 4 (4×) and 1"},
      {"measurement": "RIGHT THIGH THERMOGRAPHY 2/3 T60", "setting": "[2]; mean", "value": 2.8},
      {"measurement": "RIGHT THIGH THERMOGRAPHY 3/3 T0", "setting": "[2]", "value": "3 (4×) and 5 (4×) and 4 (15×) and 2 and 7"},
      {"measurement": "RIGHT THIGH THERMOGRAPHY 3/3 T0", "setting": "[2]; mean", "value": 4.0},
      {"measurement": "RIGHT THIGH THERMOGRAPHY 3/3 T15", "setting": "[2]", "value": "3 (7×) and 4 (11×) and 5 (3×) and 2 (4×)"},
      {"measurement": "RIGHT THIGH THERMOGRAPHY 3/3 T15", "setting": "[2]; mean", "value": 3.5},
      {"measurement": "RIGHT THIGH THERMOGRAPHY 3/3 T30", "setting": "[2]", "value": "2 (7×) and 3 (10×) and 4 (7×) and 1"},
      {"measurement": "RIGHT THIGH THERMOGRAPHY 3/3 T30", "setting": "[2]; mean", "value": 2.9},
      {"measurement": "RIGHT THIGH THERMOGRAPHY 3/3 T60", "setting": "[2]", "value": "1 (3×) and 3 (12×) and 2 (9×) and 4"},
      {"measurement": "RIGHT THIGH THERMOGRAPHY 3/3 T60", "setting": "[2]; mean", "value": 2.4}
    ]}
  ]
}
